Measured values published in ChEMBL document CHEMBL5244221, “Synthesis and structure-activity relationship studies of cruzain and rhodesain inhibitors” (Eur J Med Chem, 2018).
Each block holds one molecule with its values, some of them ahead of it.

How the values were obtained:
Trypanosoma cruzi [1] = test: Antitrypanosomal activity against Trypanosoma cruzi assessed as reduction in parasite growth; format: functional, organism-based
Trypanosoma brucei = test: Antitrypanosomal activity against Trypanosoma brucei assessed as parasite growth inhibition; format: functional, organism-based
[2] = Lipophilicity, logP of compound; format: physicochemical; details: octanol/water
Rhodesain [3] = molecular target: T1, Rhodesain (Trypanosoma brucei rhodesiense, UniProt Q95PM0); test: Inhibition of Trypanosoma brucei rhodesiense rhodesain
T1 sequence (Q95PM0 whole entry): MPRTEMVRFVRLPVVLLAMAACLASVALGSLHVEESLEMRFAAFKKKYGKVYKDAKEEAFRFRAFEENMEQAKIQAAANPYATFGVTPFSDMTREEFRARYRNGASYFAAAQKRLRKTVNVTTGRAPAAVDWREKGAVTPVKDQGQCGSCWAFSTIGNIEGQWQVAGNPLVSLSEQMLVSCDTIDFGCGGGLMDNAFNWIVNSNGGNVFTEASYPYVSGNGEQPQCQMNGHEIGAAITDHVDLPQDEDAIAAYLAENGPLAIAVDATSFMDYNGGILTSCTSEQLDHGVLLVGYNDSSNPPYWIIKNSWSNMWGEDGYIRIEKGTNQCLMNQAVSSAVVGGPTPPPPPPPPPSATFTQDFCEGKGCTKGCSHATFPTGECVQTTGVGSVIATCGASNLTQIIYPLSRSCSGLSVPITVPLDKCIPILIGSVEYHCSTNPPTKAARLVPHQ

Rhodesain [4] = molecular target: T1, Rhodesain; test: Inhibition of Trypanosoma brucei rhodesiense rhodesain expressed in Pichia pastoris measured for 30 mins using Cbz-Phe-Arg-AMC as substrate
[5] = tested on: Trypanosoma brucei brucei; test: Antitrypanosomal activity against Trypanosoma brucei brucei assessed as parasite growth inhibition; format: functional, organism-based
Trypanosoma cruzi [6] = test: Antitrypanosomal activity against Trypanosoma cruzi; format: functional, organism-based
Cruzipain [7] = molecular target: T2, Cruzipain (Trypanosoma cruzi, UniProt P25779); test: Binding affinity to Trypanosoma cruzi Cruzain assessed as inhibition constant
T2 sequence (P25779 whole entry): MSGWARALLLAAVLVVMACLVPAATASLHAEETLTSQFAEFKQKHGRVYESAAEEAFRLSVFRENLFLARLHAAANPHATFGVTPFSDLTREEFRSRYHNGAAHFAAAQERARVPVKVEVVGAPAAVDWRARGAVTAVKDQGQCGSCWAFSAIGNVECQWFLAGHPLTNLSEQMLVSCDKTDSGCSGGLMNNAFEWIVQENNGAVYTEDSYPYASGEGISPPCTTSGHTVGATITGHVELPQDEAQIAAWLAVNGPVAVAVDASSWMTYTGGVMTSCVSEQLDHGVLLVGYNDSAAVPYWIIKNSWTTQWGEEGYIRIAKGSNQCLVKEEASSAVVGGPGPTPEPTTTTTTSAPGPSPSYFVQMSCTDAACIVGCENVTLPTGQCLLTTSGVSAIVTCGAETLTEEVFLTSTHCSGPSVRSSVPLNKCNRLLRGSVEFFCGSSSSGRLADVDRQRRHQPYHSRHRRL

Cathepsin S = Cathepsin S (Homo sapiens, UniProt P25774); test: Binding affinity to Cathepsin S (unknown origin) assessed as inhibition constant measured after 22 hrs
Sequence of Cathepsin S (P25774 whole entry): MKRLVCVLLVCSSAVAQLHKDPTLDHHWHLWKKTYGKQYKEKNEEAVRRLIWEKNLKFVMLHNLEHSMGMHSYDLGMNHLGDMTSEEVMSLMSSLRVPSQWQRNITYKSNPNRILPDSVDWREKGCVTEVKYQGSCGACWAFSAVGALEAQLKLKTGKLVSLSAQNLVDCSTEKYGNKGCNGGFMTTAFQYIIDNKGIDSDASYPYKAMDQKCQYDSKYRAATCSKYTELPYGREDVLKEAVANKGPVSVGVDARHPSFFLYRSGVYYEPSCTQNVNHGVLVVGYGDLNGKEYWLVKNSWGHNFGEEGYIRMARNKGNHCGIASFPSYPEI

Trypanosoma cruzi [8] = test: Antitrypanosomal activity against Trypanosoma cruzi assessed as inhibition of growth incubated for 4 days by resazurin dye based assay; format: functional, organism-based; details: 96 h
Cruzipain [9] = molecular target: T2, Cruzipain; test: Inhibition of Trypanosoma cruzi Cruzain

Compound: OCCN1CCN(c2ccnc3cc(Cl)ccc23)CC1
- IC50 (Trypanosoma cruzi [1]): > 250000 nM

Compound: CCCNc1ccnc2cc(Cl)ccc12
- IC50 (Rhodesain [3]): 34200 nM

Compound: OCCCNc1ccnc2cc(Cl)ccc12
- IC50 (Rhodesain [3]): 72000 nM
- IC50 (Trypanosoma cruzi [1]): 6500 nM

Compound: O=C(CNc1ccnc2cc(Cl)ccc12)N1CCOCC1
- IC50 (Rhodesain [3]): 48000 nM
- IC50 (Trypanosoma cruzi [1]): > 250000 nM

Compound: N#Cc1nc(Cc2ccc(Cl)c(Cl)c2)c2ncn(CCCO)c2n1
- EC50 (Trypanosoma brucei): 110 nM

Compound: OCCNc1ccnc2cc(Cl)ccc12
- IC50 (Rhodesain [3]): 58000 nM
- IC50 (Trypanosoma cruzi [1]): > 250000 nM

Compound: CCCCn1cnc2c(Cc3ccc(Cl)c(Cl)c3)nc(C#N)nc21
- EC50 (Trypanosoma brucei): 180 nM

Compound: N#Cc1nc(C2CCCCC2)c2ncn(Cc3ccccc3)c2n1
- EC50 (Trypanosoma brucei): 330 nM

Compound: CC(C)(F)C[C@H](N[C@@H](c1ccc(-c2ccc(S(C)(=O)=O)cc2)cc1)C(F)(F)F)C(=O)NC1(C#N)CC1 [ODANACATIB]
- EC50 (Trypanosoma cruzi [8]): 2510 nM

Compound: CCOC(=O)/C=C\C(=O)[C@H](CC(C)C)NC(=O)[C@H](Cc1ccccc1)NC(=O)OCc1ccccc1
- IC50 (Rhodesain [3]): 16.4 nM

Compound: Clc1ccc2c(NCc3ccccc3)ccnc2c1
- IC50 (Rhodesain [3]): 34000 nM

Compound: Cc1nn(C)c2cc(N3CCN(C(=O)[C@@H]4CCCC[C@H]4C(=O)NC4(C#N)CC4)[C@H](C)C3)ccc12
- EC50 (Trypanosoma cruzi [6]): 1300 nM

Compound: NCCNc1ccnc2cc(Cl)ccc12
- IC50 (Rhodesain [3]): 126000 nM

Compound: COC(CCn1cnc2c(Cc3ccc(Cl)c(Cl)c3)nc(C#N)nc21)OC
- EC50 (Trypanosoma brucei): 220 nM

Compound: CCCCn1cnc2c(Cc3ccc(OC)cc3)nc(C#N)nc21
- EC50 (Trypanosoma brucei): 390 nM

Compound: CCCCn1cnc2c(Cc3cccc(C)c3)nc(C#N)nc21
- EC50 (Trypanosoma brucei): 270 nM

Compound: COCCCn1cnc2c(Cc3ccc(Cl)c(Cl)c3)nc(C#N)nc21
- EC50 (Trypanosoma brucei): 150 nM

Compound: Clc1ccc2c(NCCN3CCOCC3)ccnc2c1
- IC50 (Rhodesain [3]): 61000 nM
- IC50 (Trypanosoma cruzi [1]): > 250000 nM

Compound: N#Cc1nc(Cc2ccc(Cl)c(Cl)c2)c2ncn(CCCCCO)c2n1
- EC50 (Trypanosoma brucei): 60 nM

Compound: CCOC(=O)/C=C/[C@@H](O)[C@H](CCc1ccccc1)NC(=O)[C@H](Cc1ccccc1)NC(=O)OCc1ccccc1
- IC50 (Rhodesain [3]): 20000 nM

The remaining lines, values ahead:

- EC50 (Trypanosoma brucei): 260 nM
Compound: N#Cc1nc(Cc2ccc(Cl)c(Cl)c2)c2ncn(Cc3ccccc3)c2n1

- logP [2]: 5.8
Compound: CCCCC(C(=O)COc1c(F)c(F)cc(F)c1F)n1cc([C@@](C)(NCc2ccc3ncccc3c2)C(C)C)nn1 (stereo not given in full)

- Ki (Rhodesain [4]): 6 nM
Compound: Cc1nc(-c2ccccc2)sc1C(=O)N[C@H](/C=C/S(=O)(=O)c1ccccc1)CCc1ccccc1

- EC50 (Trypanosoma brucei): 240 nM
Compound: N#Cc1nc(Cc2ccccc2)c2ncn(CC3CCCCO3)c2n1 (stereo not given)

- EC50 [5]: 1180 nM
Compound: O=C(N[C@@H](Cc1ccccc1)C(=O)N[C@H](/C=C/S(=O)(=O)c1ccccc1)CCCCNS(=O)(=O)c1ccc2ccccc2c1)OCc1ccccc1

- EC50 (Trypanosoma brucei): 340 nM
Compound: N#Cc1nc(Cc2ccc(Cl)cc2)c2ncn(Cc3cccc(C(F)(F)F)c3)c2n1

- EC50 (Trypanosoma cruzi [6]): 120 nM
Compound: N#CC1(NC(=O)[C@H](Cc2ccccc2)N[C@H](c2ccccc2)C(F)(F)F)CC1

- Ki (Cruzipain [7]): 80 nM
Compound: O=C(COc1ccc2ccccc2c1Br)NCCc1nc2ccccc2[nH]1

- EC50 (Trypanosoma brucei): 270 nM
Compound: COc1ccc(Cn2cnc3c(Cc4ccc(Cl)cc4)nc(C#N)nc32)cc1

- Ki (Cathepsin S): 220 nM
Compound: N#Cc1ccccc1OCC(=O)NCCc1nc2ccccc2[nH]1

- Ki (Cathepsin S): 48 nM
Compound: O=C(COc1ccccc1I)NCCc1nc2ccccc2[nH]1

- EC50 (Trypanosoma brucei): 260 nM
Compound: N#Cc1nc(Cc2ccccc2)c2ncn(Cc3cccc(C(F)(F)F)c3)c2n1

- IC50 (Cruzipain [9]): 2500 nM
Compound: Clc1ccc2[nH]c3c(NCCCN4CCOCC4)ncnc3c2c1

- EC50 (Trypanosoma brucei): 310 nM
Compound: N#Cc1nc(Cc2ccc(Cl)cc2)c2ncn(CCCO)c2n1

- IC50 (Cruzipain [9]): 77500 nM
- IC50 (Trypanosoma cruzi [1]): 34600 nM
Compound: O=C(COCc1ccccc1Br)NCCc1nc2ccccc2[nH]1

- Ki (Cathepsin S): 360 nM
Compound: O=C(COc1ccccc1F)NCCc1nc2ccccc2[nH]1

- IC50 (Trypanosoma cruzi [1]): > 250000 nM
Compound: NCCCNc1ccnc2cc(Cl)ccc12

- Ki (Cruzipain [7]): 251 nM
Compound: N#CCNC(=O)[C@H](Cc1ccccc1)NC(=O)c1cc(Br)ccn1

- EC50 [5]: 1880 nM
Compound: O=C(N[C@@H](Cc1ccccc1)C(=O)N[C@H](/C=C/S(=O)(=O)c1ccccc1)CCCCn1nnc2ccccc21)OCc1ccccc1

- EC50 [5]: 1220 nM
Compound: CCCCCCS(=O)(=O)NCCCC[C@@H](/C=C/S(=O)(=O)c1ccccc1)NC(=O)[C@H](Cc1ccccc1)NC(=O)OCc1ccccc1
